# Reference: patent publication US9975906B2, “Tricyclic heterocycle derivatives having HIV replication inhibitory effect” (Shionogi & Co., Ltd., priority 2014, dated 2018)
# Assays:
# Type in all cases: in vitro ADME
# CYP3A4 [1] = molecular target: T1, CYP3A4 (Homo sapiens, UniProt P08684); test: CYP3A4 (MDZ) MBI Test; details: pooled human liver microsomes, 10 μmol/L MDZ, pre-reaction 0 or 30 minutes
# T1 construct: enzyme, pooled human hepatic microsome 0.2 mg protein/mL; from tissue
# Experimental: CYP3A4 (MDZ) MBI test is a test of investigating mechanism based inhibition (MBI) ability on CYP3A4 inhibition of a compound by enhancement of a metabolism reaction. CYP3A4 inhibition is evaluated using 1-hydroxylation reaction of midazolam (MDZ) by pooled human liver microsomes as an index.
# The reaction conditions are as follows: substrate, 10 μmol/L MDZ; pre-reaction time, 0 or 30 minutes; substrate reaction time, 2 minutes; reaction temperature, 37° C.; protein content of pooled human liver microsomes, at pre-reaction time 0.5 mg/mL, at reaction time 0.05 mg/mL (at 10-fold dilution); concentrations of the compound of the present invention, 1, 5, 10, 20 μmol/L (four points).
# Pooled human liver microsomes in K-Pi buffer (pH 7.4) and a solution of the compound of the present invention as a pre-reaction solution were added to a 96-well plate at the composition of the pre-reaction. […] After centrifuged at 3000 rpm for 15 minutes, 1-hydroxymidazolam in the supernatant was quantified by LC/MS/MS.
# The sample adding DMSO to a reaction system instead of a solution of the compound of the present invention is adopted as a control (100%) because DMSO is used as a solvent to dissolve the compound of the present invention. […] Shifted IC value is calculated as “IC of preincubation at 0 min/IC of preincubation at 30 min”. […]
# CYP2D6 = molecular target: T2, CYP2D6 (Homo sapiens, UniProt P10635); test: CYP Inhibition Assay (dextromethorphan O-demethylation); details: pooled human hepatic microsome, 5 μmol/L dextromethorphan, 15 minutes, 37° C.
# T2 construct: enzyme, pooled human hepatic microsome 0.2 mg protein/mL; from tissue
# T2 sequence (P10635 whole entry): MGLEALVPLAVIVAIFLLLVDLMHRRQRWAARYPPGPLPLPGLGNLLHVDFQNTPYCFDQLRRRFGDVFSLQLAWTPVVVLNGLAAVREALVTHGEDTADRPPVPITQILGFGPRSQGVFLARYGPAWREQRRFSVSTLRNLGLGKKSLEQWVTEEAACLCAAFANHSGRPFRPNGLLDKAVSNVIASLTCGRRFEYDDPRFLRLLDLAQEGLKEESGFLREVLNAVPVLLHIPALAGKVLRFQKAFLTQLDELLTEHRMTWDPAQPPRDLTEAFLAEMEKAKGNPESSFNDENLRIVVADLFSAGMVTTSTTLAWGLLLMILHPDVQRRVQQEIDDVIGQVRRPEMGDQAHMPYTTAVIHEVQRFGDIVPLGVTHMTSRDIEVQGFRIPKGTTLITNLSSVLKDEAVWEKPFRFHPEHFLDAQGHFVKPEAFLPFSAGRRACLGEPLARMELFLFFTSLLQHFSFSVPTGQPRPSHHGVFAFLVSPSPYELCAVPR
# Experimental: (§1) Using commercially available pooled human hepatic microsome, and employing, as markers, 7-ethoxyresorufin O-deethylation (CYP1A2), tolbutamide methyl-hydroxylation (CYP2C9), mephenytoin 4'-hydroxylation (CYP2C19), dextromethorphan O-demethylation (CYP2D6), and terfenadine hydroxylation (CYP3A4) as typical substrate metabolism reactions of human main five CYP enzyme forms (CYP1A2, 2C9, 2C19, 2D6, 3A4) an inhibitory degree of each metabolite production amount by a test compound was assessed. […] After the centrifugation at 3000 rpm for 15 minutes, resorufin (CYP1A2 metabolite) in the supernatant was quantified by a fluorescent multilabel counter and tolbutamide hydroxide (CYP2C9 metabolite), mephenytoin 4' hydroxide (CYP2C19 metabolite), dextrorphan (CYP2D6 metabolite), and terfenadine alcohol (CYP3A4 metabolite) were quantified by LC/MS/MS. A reaction system containing only DMSO which is a solvent for dissolving a drug was adopted as a control (100%), and the remaining activity (%) was calculated, then IC50 was calculated by reverse presumption with a logistic model using a concentration and an inhibition rate.
# CYP2C19 = molecular target: T3, CYP2C19 (Homo sapiens, UniProt P33261); test: CYP Inhibition Assay (mephenytoin 4'-hydroxylation); details: pooled human hepatic microsome, 50 μmol/L S-mephenytoin, 15 minutes, 37° C.
# T3 construct: enzyme, pooled human hepatic microsome 0.2 mg protein/mL; from tissue
# T3 sequence (P33261 whole entry): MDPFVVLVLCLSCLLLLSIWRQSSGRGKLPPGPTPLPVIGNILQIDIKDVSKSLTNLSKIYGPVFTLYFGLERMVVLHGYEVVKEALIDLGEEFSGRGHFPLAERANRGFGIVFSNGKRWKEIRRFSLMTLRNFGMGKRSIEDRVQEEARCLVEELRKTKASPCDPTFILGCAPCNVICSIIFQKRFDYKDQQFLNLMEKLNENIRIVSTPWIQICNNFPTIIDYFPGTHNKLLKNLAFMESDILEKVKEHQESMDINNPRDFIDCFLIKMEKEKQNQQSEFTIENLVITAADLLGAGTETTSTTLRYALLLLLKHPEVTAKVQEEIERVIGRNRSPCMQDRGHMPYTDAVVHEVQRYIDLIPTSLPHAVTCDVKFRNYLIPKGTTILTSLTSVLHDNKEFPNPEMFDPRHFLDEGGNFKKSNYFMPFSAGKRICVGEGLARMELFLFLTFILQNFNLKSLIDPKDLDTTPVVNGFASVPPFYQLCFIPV
# Experimental: as §1
# CYP3A4 [2] = molecular target: T1, CYP3A4; test: CYP Inhibition Assay (terfenadine hydroxylation); details: pooled human hepatic microsome, 1 μmol/L terfenedine, 15 minutes, 37° C.
# Experimental: as §1
# CYP1A2 = molecular target: T4, CYP1A2 (Homo sapiens, UniProt P05177); test: CYP Inhibition Assay (7-ethoxyresorufin O-deethylation); details: pooled human hepatic microsome, 0.5 μmol/L ethoxyresorufin, 15 minutes, 37° C.
# T4 construct: enzyme, pooled human hepatic microsome 0.2 mg protein/mL; from tissue
# T4 sequence (P05177 1-516): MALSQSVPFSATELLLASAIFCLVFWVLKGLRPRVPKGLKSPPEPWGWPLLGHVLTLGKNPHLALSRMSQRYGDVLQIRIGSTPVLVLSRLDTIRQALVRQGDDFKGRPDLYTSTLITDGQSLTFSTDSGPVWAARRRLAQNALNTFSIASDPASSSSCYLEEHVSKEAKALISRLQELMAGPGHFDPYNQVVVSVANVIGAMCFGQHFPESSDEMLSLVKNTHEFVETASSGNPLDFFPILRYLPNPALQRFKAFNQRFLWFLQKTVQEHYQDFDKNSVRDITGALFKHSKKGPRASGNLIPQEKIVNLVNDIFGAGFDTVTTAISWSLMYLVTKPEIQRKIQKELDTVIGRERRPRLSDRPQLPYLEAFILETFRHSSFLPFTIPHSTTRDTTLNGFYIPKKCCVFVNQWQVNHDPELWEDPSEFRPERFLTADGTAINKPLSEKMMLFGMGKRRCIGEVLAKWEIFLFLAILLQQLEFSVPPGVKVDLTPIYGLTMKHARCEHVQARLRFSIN
# Experimental: as §1
# T1 sequence (P08684 whole entry): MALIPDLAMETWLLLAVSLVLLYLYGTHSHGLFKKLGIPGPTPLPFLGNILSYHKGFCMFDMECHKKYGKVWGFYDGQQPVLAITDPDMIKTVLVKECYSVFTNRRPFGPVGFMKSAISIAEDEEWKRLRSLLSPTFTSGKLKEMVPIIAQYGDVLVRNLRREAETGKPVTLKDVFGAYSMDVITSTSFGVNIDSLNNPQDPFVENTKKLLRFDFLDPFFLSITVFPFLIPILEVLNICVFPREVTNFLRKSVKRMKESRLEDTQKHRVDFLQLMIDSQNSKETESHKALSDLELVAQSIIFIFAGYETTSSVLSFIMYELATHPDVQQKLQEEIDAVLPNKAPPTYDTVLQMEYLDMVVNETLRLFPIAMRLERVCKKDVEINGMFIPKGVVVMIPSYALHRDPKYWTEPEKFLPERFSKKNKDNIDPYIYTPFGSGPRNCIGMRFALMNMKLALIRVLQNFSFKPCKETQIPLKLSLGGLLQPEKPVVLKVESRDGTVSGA
compound,measurement,setting,value
Cc1ccc(-c2c([C@H](OC(C)(C)C)C(=O)O)c(C)c3c4c2cc(-c2ccnc(-c5ccc6c(cnn6C)c5)c2)n4CCN3CCN(C)C)cc1 [Compound I-034],CYP3A4 (MDZ) MBI (shifted IC),CYP3A4 [1],"(−) (When a shifted IC is 1.0 or less, this is defined as negative)"
same,IC50,CYP2D6,> 20 µM
same,IC50,CYP2C19,> 20 µM
same,IC50,CYP3A4 [2],> 20 µM
same,IC50,CYP1A2,> 20 µM
